Measured values as given in patent publication US9302999B2, “Substituted triazoles as herbicides” (E. I. DU PONT DE NEMOURS AND COMPANY, priority 2012, dated 2016).

Tests used:
[1] = system: pigweed (Amaranthus retroflexus); assay: Test A pre-/postemergence: pigweed; type: in vivo
In short: (§1)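 Seeds were sown in loam/sand blend and sprayed preemergence (directed soil spray) and, simultaneously, postemergence at 2–10 cm, one- to two-leaf stage, using compounds in non-phytotoxic solvent with surfactant. After ~10 days in greenhouse, injury was rated visually versus untreated controls, 0 (no effect) to 100 (complete control).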

[2] = system: wheat (Triticum aestivum); assay: Test A pre-/postemergence: wheat; type: in vivo
In short: as §1

corn (Zea mays) = assay: Test A pre-/postemergence: corn; type: in vivo
In short: as §1

[3] = system: sedge, umbrella (small-flower umbrella sedge Cyperus difformis); assay: Test B flooded paddy: sedge, umbrella; type: in vivo; conditions: Flood, applied to paddy water at 2-leaf stage, visually evaluated after 13 to 15 days
In short: (§2)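 Plants were grown to the 2-leaf stage, then pots were flooded to 3 cm above the soil and compounds were applied directly into the paddy water. Water depth was held for the whole test; after 13 to 15 days in a greenhouse, injury was visually rated against untreated controls (0 = no effect, 100 = complete control).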

[4] = system: ducksalad (Heteranthera limosa); assay: Test B flooded paddy: ducksalad; type: in vivo; conditions: Flood, applied to paddy water at 2-leaf stage, visually evaluated after 13 to 15 days
In short: as §2

[5] = system: lambsquarters (Chenopodium album); assay: Test C pre-/postemergence: lambsquarters; type: in vivo
In short: (§3)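 Preemergence on seeds in loam/sand, postemergence on 2–18 cm (1–4-leaf) plants in peat-based medium; compounds in non-phytotoxic solvent with surfactant. After 13–15 days in greenhouse, visual rating versus controls, 0 (no effect) to 100 (complete control).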

[6] = system: morningglory (Ipomoea coccinea); assay: Test C pre-/postemergence: morningglory; type: in vivo
In short: as §3

[7] = system: ragweed (common ragweed, Ambrosia elation); assay: Test C pre-/postemergence: ragweed; type: in vivo
In short: as §3

Oilseed Rape = assay: Test C postemergence: oilseed rape; type: in vivo, Brassica napus
[8] = Postemergence, 125 g ai/ha, 0 to 100 scale, 0 is no effect, 100 is complete control
[9] = Postemergence, 500 g ai/ha, 0 to 100 scale, 0 is no effect, 100 is complete control
[10] = Preemergence, 125 g ai/ha, 0 to 100 scale where 0 is no effect and 100 is complete control
[11] = Preemergence, 500 g ai/ha, 0 to 100 scale (0 no effect, 100 complete control)
[12] = Postemergence, 31 g ai/ha, scale 0 to 100 (0 no effect, 100 complete control)
[13] = Postemergence, 62 g ai/ha, scale 0 to 100 (0 no effect, 100 complete control)
[14] = Postemergence, 125 g ai/ha, scale 0 to 100, 0 no effect, 100 complete control
[15] = Postemergence, 250 g ai/ha, scale 0 to 100 (0 no effect, 100 complete control)
[16] = Preemergence, 31 g ai/ha, scale 0 (no effect) to 100 (complete control)
[17] = Preemergence, 62 g ai/ha, scale of 0 to 100, 0 is no effect, 100 is complete control
[18] = Preemergence, 125 g ai/ha, scale 0 to 100, 0 no effect, 100 complete control
[19] = Preemergence, 250 g ai/ha, scale 0 to 100, 0 no effect, 100 complete control
[20] = 125 g ai/ha, scale 0 to 100, 0 no effect, 100 complete control
[21] = 250 g ai/ha, scale 0 to 100 (0 no effect, 100 complete control)

Row | SMILES | Plant response rating, Pigweed [1, 8] | Pigweed plant response rating [1, 9] | Plant response rating, Pigweed [1, 10] | Plant response rating, Pigweed [1, 11] | Plant response rating, Wheat [2, 8] | Wheat plant response rating [2, 9] | Plant response rating, Wheat [2, 10] | Plant response rating, Wheat [2, 11] | Plant response rating, Corn (corn (Zea mays); [8]) | Corn plant response rating (corn (Zea mays); [9]) | Plant response rating, Corn (corn (Zea mays); [10]) | Plant response rating, Corn (corn (Zea mays); [11]) | Plant response rating, Lambsquarters [5, 12] | Plant response rating, Lambsquarters [5, 13] | Plant response rating, Lambsquarters [5, 14] | Plant response rating, Lambsquarters [5, 15] | Plant response rating, Lambsquarters [5, 16] | Plant response rating, Lambsquarters [5, 17] | Plant response rating, Lambsquarters [5, 19] | Plant response rating, Morningglory [6, 12] | further results
1 | CCCc1nn(-c2ccc(C(F)(F)F)cc2)nc1Oc1ccnc(C(F)(F)F)c1 [Compound 170] | 100 | 100 | 100 | 100 | 40 | 50 | 60 | 80 | 30 | 50 | 30 | 40 | 85 | 95 | 95 | 98 | 85 | 85 | 98 | 75 | Plant response rating, Sedge, Umbrella (0 to 100 scale, 0 is no effect, 100 is complete control) ([3]; 250 g ai/ha): 90; Plant response rating, Ducksalad (0 to 100 scale, 0 is no effect, 100 is complete control) ([4]; 250 g ai/ha): 35; Plant response rating, Lambsquarters [5, 18]: 98; Plant response rating, Morningglory [6, 13]: 98; Plant response rating, Morningglory [6, 14]: 100; Plant response rating, Morningglory [6, 15]: 100; Plant response rating, Morningglory [6, 16]: 35; Plant response rating, Morningglory [6, 17]: 55; Plant response rating, Morningglory [6, 18]: 100; Plant response rating, Morningglory [6, 19]: 100; Plant response rating, Ragweed [7, 12]: 85; Plant response rating, Ragweed [7, 13]: 85; Plant response rating, Ragweed [7, 14]: 90; Plant response rating, Ragweed [7, 15]: 90; Plant response rating, Ragweed [7, 16]: 5; Plant response rating, Ragweed [7, 17]: 60; Plant response rating, Ragweed [7, 18]: 75; Plant response rating, Ragweed [7, 19]: 95; Plant response rating, Oilseed Rape (Oilseed Rape; [20]): 50; Plant response rating, Oilseed Rape (Oilseed Rape; [21]): 85
2 | CCc1nn(-c2ccc(F)c(F)c2)nc1Oc1ccnc(C(F)(F)F)c1 [Compound 171] | 100 | 100 | 100 | 100 | 30 | 40 | 10 | 60 | 20 | 30 | 10 | 30 | 75 | 75 | 95 | 95 | 100 | 100 | 100 | 60 | Plant response rating, Sedge, Umbrella (0 to 100 scale, 0 is no effect, 100 is complete control) ([3]; 250 g ai/ha): 85; Plant response rating, Ducksalad (0 to 100 scale, 0 is no effect, 100 is complete control) ([4]; 250 g ai/ha): 0; Plant response rating, Morningglory [6, 13]: 65; Plant response rating, Morningglory [6, 14]: 98; Plant response rating, Morningglory [6, 16]: 0; Plant response rating, Morningglory [6, 17]: 20; Plant response rating, Morningglory [6, 18]: 25; Plant response rating, Morningglory [6, 19]: 25; Plant response rating, Ragweed [7, 12]: 55; Plant response rating, Ragweed [7, 13]: 55; Plant response rating, Ragweed [7, 14]: 55; Plant response rating, Ragweed [7, 15]: 55; Plant response rating, Ragweed [7, 16]: 0; Plant response rating, Ragweed [7, 17]: 5; Plant response rating, Ragweed [7, 18]: 10; Plant response rating, Ragweed [7, 19]: 15; Plant response rating, Oilseed Rape (Oilseed Rape; [20]): 30; Plant response rating, Oilseed Rape (Oilseed Rape; [21]): 30
3 | CCCc1nn(-c2ccc(F)c(F)c2)nc1Oc1ccnc(C(F)(F)F)c1 [Compound 172] | 100 | 100 | 100 | 100 | 40 | 50 | 50 | 70 | 30 | 50 | 30 | 60 | 98 | 98 | 98 | 98 | 90 | 90 | 95 | 65 | Plant response rating, Sedge, Umbrella (0 to 100 scale, 0 is no effect, 100 is complete control) ([3]; 250 g ai/ha): 75; Plant response rating, Ducksalad (0 to 100 scale, 0 is no effect, 100 is complete control) ([4]; 250 g ai/ha): 0; Plant response rating, Lambsquarters [5, 18]: 95; Plant response rating, Morningglory [6, 13]: 80; Plant response rating, Morningglory [6, 15]: 80; Plant response rating, Morningglory [6, 16]: 30; Plant response rating, Morningglory [6, 17]: 35; Plant response rating, Morningglory [6, 18]: 55; Plant response rating, Morningglory [6, 19]: 70; Plant response rating, Ragweed [7, 12]: 75; Plant response rating, Ragweed [7, 13]: 75; Plant response rating, Ragweed [7, 14]: 80; Plant response rating, Ragweed [7, 15]: 80; Plant response rating, Ragweed [7, 16]: 35; Plant response rating, Ragweed [7, 17]: 40; Plant response rating, Ragweed [7, 18]: 80; Plant response rating, Ragweed [7, 19]: 85; Plant response rating, Oilseed Rape (Oilseed Rape; [20]): 90; Plant response rating, Oilseed Rape (Oilseed Rape; [21]): 95
4 | CCCc1nn(-c2ccc(F)cc2F)nc1Oc1ccnc(C(F)(F)F)c1 [Compound 179] | 100 | 100 | 100 | 100 | 30 | 40 | 20 | 50 | 20 | 30 | 20 | 30 | 80 | 80 | 85 | 90 | 98 | 98 | 100 | 65 | Plant response rating, Sedge, Umbrella (0 to 100 scale, 0 is no effect, 100 is complete control) ([3]; 125 g ai/ha): 75; Plant response rating, Ducksalad (0 to 100 scale, 0 is no effect, 100 is complete control) ([4]; 125 g ai/ha): 65; Plant response rating, Lambsquarters [5, 18]: 98; Plant response rating, Morningglory [6, 13]: 80; Plant response rating, Morningglory [6, 14]: 80; Plant response rating, Morningglory [6, 15]: 90; Plant response rating, Morningglory [6, 16]: 5; Plant response rating, Morningglory [6, 17]: 40; Plant response rating, Morningglory [6, 18]: 55; Plant response rating, Morningglory [6, 19]: 65; Plant response rating, Ragweed [7, 12]: 50; Plant response rating, Ragweed [7, 13]: 55; Plant response rating, Ragweed [7, 14]: 60; Plant response rating, Ragweed [7, 15]: 75; Plant response rating, Ragweed [7, 16]: 40; Plant response rating, Ragweed [7, 17]: 40; Plant response rating, Ragweed [7, 18]: 45; Plant response rating, Ragweed [7, 19]: 45; Plant response rating, Oilseed Rape (Oilseed Rape; [20]): 90; Plant response rating, Oilseed Rape (Oilseed Rape; [21]): 90
